Data: the NIST ThermoML archive (doi:10.1007/s10765-010-0766-0)
Where “and” joins values, the source holds several entries; their conditions need not be identical. Equal entries are not always repeated.

Settings: Liquid, Pycnometric method

FC(F)C(F)(F)OCC(F)(F)F [2,2,2-trifluoroethyl 1,1,2,2-tetrafluoroethyl ether]
Settings | mass density
342.15 K, 16809 kPa | 1418.3 kg/m3
342.15 K, 16812 kPa | 1418.3 kg/m3
343.15 K, 17505 kPa | 1418.1 kg/m3
343.15 K, 17508 kPa | 1418.1 kg/m3
344.15 K, 18201 kPa | 1418 kg/m3
344.15 K, 18203 kPa | 1418 kg/m3
345.15 K, 18896 kPa | 1417.8 kg/m3
345.15 K, 18898 kPa | 1417.8 kg/m3
346.15 K, 19590 kPa | 1417.7 kg/m3
346.15 K, 19592 kPa | 1417.7 kg/m3
347.15 K, 20282 kPa | 1417.5 kg/m3
347.15 K, 20287 kPa | 1417.6 kg/m3
348.15 K, 20974 kPa | 1417.4 kg/m3
348.15 K, 20978 kPa | 1417.4 kg/m3
349.15 K, 21666 kPa | 1417.3 kg/m3
349.15 K, 21671 kPa | 1417.3 kg/m3
350.15 K, 22357 kPa | 1417.1 kg/m3
350.15 K, 22360 kPa | 1417.2 kg/m3
351.15 K, 23047 kPa | 1417 kg/m3
351.15 K, 23050 kPa | 1417 kg/m3
352.15 K, 23735 kPa | 1416.9 kg/m3
352.15 K, 23739 kPa | 1416.9 kg/m3
353.15 K, 24423 kPa | 1416.8 kg/m3
353.15 K, 24426 kPa | 1416.8 kg/m3
354.15 K, 25110 kPa | 1416.6 kg/m3
354.15 K, 25114 kPa | 1416.7 kg/m3
355.15 K, 25797 kPa | 1416.5 kg/m3
355.15 K, 25801 kPa | 1416.5 kg/m3
356.15 K, 26482 kPa | 1416.4 kg/m3
356.15 K, 26486 kPa | 1416.4 kg/m3
357.15 K, 27166 kPa | 1416.3 kg/m3
357.15 K, 27171 kPa | 1416.3 kg/m3
358.15 K, 27851 kPa | 1416.2 kg/m3
358.15 K, 27855 kPa | 1416.2 kg/m3
359.15 K, 5632 kPa | 1334.4 kg/m3
359.15 K, 5637 kPa | 1334.4 kg/m3
359.15 K, 28535 kPa | 1416.1 kg/m3
359.15 K, 28538 kPa | 1416.1 kg/m3
360.15 K, 6174 kPa | 1334.2 kg/m3
360.15 K, 6180 kPa | 1334.2 kg/m3
360.15 K, 29217 kPa | 1415.9 kg/m3
360.15 K, 29220 kPa | 1416 kg/m3
361.15 K, 6718 kPa | 1334.1 kg/m3
361.15 K, 6724 kPa | 1334.1 kg/m3
361.15 K, 29899 kPa | 1415.8 kg/m3
361.15 K, 29902 kPa | 1415.9 kg/m3
362.15 K, 7261 kPa | 1333.9 kg/m3
362.15 K, 7266 kPa | 1333.9 kg/m3
363.15 K, 7803 kPa | 1333.8 kg/m3
363.15 K, 7809 kPa | 1333.8 kg/m3
364.15 K, 8346 kPa | 1333.6 kg/m3
364.15 K, 8350 kPa | 1333.6 kg/m3
365.15 K, 8888 kPa | 1333.5 kg/m3
365.15 K, 8892 kPa | 1333.5 kg/m3
366.15 K, 9430 kPa | 1333.3 kg/m3
366.15 K, 9434 kPa | 1333.4 kg/m3
367.15 K, 9971 kPa | 1333.2 kg/m3
367.15 K, 9976 kPa | 1333.2 kg/m3
368.15 K, 10512 kPa | 1333.1 kg/m3
368.15 K, 10516 kPa | 1333.1 kg/m3
369.15 K, 11053 kPa | 1332.9 kg/m3
369.15 K, 11057 kPa | 1332.9 kg/m3
370.15 K, 11593 kPa | 1332.8 kg/m3
370.15 K, 11598 kPa | 1332.8 kg/m3
371.15 K, 12133 kPa | 1332.7 kg/m3
371.15 K, 12137 kPa | 1332.7 kg/m3
372.15 K, 12673 kPa | 1332.5 kg/m3
372.15 K, 12677 kPa | 1332.6 kg/m3
373.15 K, 13212 kPa | 1332.4 kg/m3
373.15 K, 13216 kPa | 1332.4 kg/m3
374.15 K, 13752 kPa | 1332.3 kg/m3
374.15 K, 13756 kPa | 1332.3 kg/m3
375.15 K, 14290 kPa | 1332.2 kg/m3
375.15 K, 14294 kPa | 1332.2 kg/m3
376.15 K, 14828 kPa | 1332 kg/m3
376.15 K, 14831 kPa | 1332 kg/m3
377.15 K, 15366 kPa | 1331.9 kg/m3
377.15 K, 15369 kPa | 1331.9 kg/m3
378.15 K, 15904 kPa | 1331.8 kg/m3
378.15 K, 15906 kPa | 1331.8 kg/m3
379.15 K, 16441 kPa | 1331.7 kg/m3
379.15 K, 16443 kPa | 1331.7 kg/m3
380.15 K, 16977 kPa | 1331.5 kg/m3
380.15 K, 16980 kPa | 1331.5 kg/m3
381.15 K, 17514 kPa | 1331.4 kg/m3
381.15 K, 17515 kPa | 1331.4 kg/m3
382.15 K, 18050 kPa | 1331.3 kg/m3
382.15 K, 18051 kPa | 1331.3 kg/m3
383.15 K, 18585 kPa | 1331.2 kg/m3
383.15 K, 18586 kPa | 1331.2 kg/m3
384.15 K, 19120 kPa | 1331.1 kg/m3
384.15 K, 19121 kPa | 1331.1 kg/m3
385.15 K, 19655 kPa | 1330.9 kg/m3
385.15 K, 19656 kPa | 1330.9 kg/m3
386.15 K, 20189 kPa | 1330.8 kg/m3
387.15 K, 20723 kPa | 1330.7 kg/m3
388.15 K, 21256 kPa | 1330.6 kg/m3
389.15 K, 21789 kPa | 1330.5 kg/m3
390.15 K, 22322 kPa | 1330.4 kg/m3
391.15 K, 22854 kPa | 1330.3 kg/m3
391.15 K, 22855 kPa | 1330.3 kg/m3
392.15 K, 23385 kPa | 1330.2 kg/m3
392.15 K, 23386 kPa | 1330.2 kg/m3
393.15 K, 23917 kPa | 1330 kg/m3 and 1330.1 kg/m3
394.15 K, 24448 kPa | 1329.9 kg/m3
395.15 K, 24978 kPa | 1329.8 kg/m3
396.15 K, 25507 kPa | 1329.7 kg/m3
396.15 K, 25508 kPa | 1329.7 kg/m3
397.15 K, 26037 kPa | 1329.6 kg/m3
397.15 K, 26038 kPa | 1329.6 kg/m3
398.15 K, 26566 kPa | 1329.5 kg/m3
398.15 K, 26567 kPa | 1329.5 kg/m3
399.15 K, 27094 kPa | 1329.4 kg/m3
399.15 K, 27096 kPa | 1329.4 kg/m3
400.15 K, 27622 kPa | 1329.3 kg/m3
400.15 K, 27623 kPa | 1329.3 kg/m3
401.15 K, 28150 kPa | 1329.2 kg/m3
401.15 K, 28151 kPa | 1329.2 kg/m3
402.15 K, 28677 kPa | 1329.1 kg/m3
402.15 K, 28678 kPa | 1329.2 kg/m3
403.15 K, 29204 kPa | 1329 kg/m3
403.15 K, 29205 kPa | 1329.1 kg/m3
404.15 K, 29730 kPa | 1329 kg/m3
404.15 K, 29732 kPa | 1329 kg/m3
